Data published in ChEMBL document CHEMBL1201862, “PubChem BioAssay data set” (2004).
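Step 1: Grow cells in 96-well plates. Step 2: Expose to compound for 48 hours at 5 concentrations. Step 3: Interpolate endpoints linearly; if unreached, use highest concentration. GI50 is the concentration that inhibits growth by half.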 Activity calls are given as the source filed them. Cut-off read from the data, not from the text of the source: active = GI50 up to about 1.1 µM and inactive = higher.

Key:
Assay in all cases: NCI tumour cell line growth inhibition, 48 h
CAKI-1 = tested on: CAKI-1
COLO 205 = tested on: COLO 205
EKVX = tested on: EKVX
HOP-92 = tested on: HOP-92
HT-29 = tested on: HT-29
IGROV-1 = tested on: IGROV-1
MOLT-4 = tested on: MOLT-4
NCI-H23 = tested on: NCI-H23
OVCAR-8 = tested on: OVCAR-8
SF-295 = tested on: SF-295
SK-MEL-28 = tested on: SK-MEL-28
SK-MEL-2 = tested on: SK-MEL-2
SK-MEL-5 = tested on: SK-MEL-5
SN12C = tested on: SN12C
SW-620 = tested on: SW-620
U-251 = tested on: U-251
UACC-257 = tested on: UACC-257
UACC-62 = tested on: UACC-62
UO-31 = tested on: UO-31

Row | Compound | GI50 (CAKI-1) | GI50 (COLO 205) | GI50 (EKVX) | GI50 (HOP-92) | GI50 (HT-29) | GI50 (IGROV-1) | GI50 (MOLT-4) | GI50 (NCI-H23) | GI50 (OVCAR-8) | GI50 (SF-295) | GI50 (SK-MEL-28) | GI50 (SK-MEL-2) | GI50 (SK-MEL-5) | GI50 (SN12C) | GI50 (SW-620) | GI50 (U-251) | GI50 (UACC-257) | GI50 (UACC-62) | GI50 (UO-31)
1 | O=C(OCc1ccccc1)C(Cc1ccccc1)N(Cc1ccccc1)Cc1ccccc1 (stereo unspecified) | > 100 µM (inactive) | > 100 µM (inactive) | > 100 µM (inactive) | > 100 µM (inactive) | > 100 µM (inactive) | > 100 µM (inactive) | 18.5 µM (inactive) | > 100 µM (inactive) | > 100 µM (inactive) | > 100 µM (inactive) | > 100 µM (inactive) | > 100 µM (inactive) | 5.94 µM (inactive) | 53 µM (inactive) | > 100 µM (inactive) | 27.7 µM (inactive) | 9.42 µM (inactive) | 80 µM (inactive) | 59 µM (inactive)
2 | CC(=O)OC1CC2(O)C(CCC3(C)C(c4ccc(=O)oc4)CCC32O)C2(C)C1=CC(O)C1OC12 (stereo unspecified) | 0.0324 µM (active) | 0.0726 µM (active) | 0.042 µM (active) | 0.0538 µM (active) | 0.135 µM (active) | 0.0653 µM (active) | 0.0281 µM (active) | 0.0275 µM (active) | 0.0349 µM (active) | 0.0366 µM (active) | 0.0621 µM (active) | 0.0724 µM (active) | 0.025 µM (active) | 0.0349 µM (active) | 0.0387 µM (active) | 0.0762 µM (active) | 0.0441 µM (active) | 0.0457 µM (active) | 0.0713 µM (active)
3 | CN(C)CCNC(=O)c1cc(Cl)cc2ccc(-c3ccccc3)nc12 | 2.04 µM (inactive) | 1.6 µM (inactive) | 5.12 µM (inactive) | 2.82 µM (inactive) | 2.22 µM (inactive) | 3.18 µM (inactive) | 0.447 µM (active) | 3.96 µM (inactive) | 2.92 µM (inactive) | 3.86 µM (inactive) | 4.83 µM (inactive) | 4.85 µM (inactive) | 1.87 µM (inactive) | 3.02 µM (inactive) | 2.32 µM (inactive) | 4.32 µM (inactive) | 2.92 µM (inactive) | 2.45 µM (inactive) | 1.91 µM (inactive)
4 | Cc1ccc(S(=O)(=O)N(CC(=O)O)c2ccccc2)cc1 | > 100 µM (inactive) | > 100 µM (inactive) | > 100 µM (inactive) | > 100 µM (inactive) | > 100 µM (inactive) | > 100 µM (inactive) | > 100 µM (inactive) | > 100 µM (inactive) | > 100 µM (inactive) | > 100 µM (inactive) | > 100 µM (inactive) | > 100 µM (inactive) | > 100 µM (inactive) | > 100 µM (inactive) | > 100 µM (inactive) | > 100 µM (inactive) | > 100 µM (inactive) | > 100 µM (inactive) | > 100 µM (inactive)
5 | Cc1cc(C)cc(Sc2c([N+](=O)[O-])ncn2C)c1 | 25.9 µM (inactive) | 12.4 µM (inactive) | 27.7 µM (inactive) | 17.2 µM (inactive) | 16.2 µM (inactive) | 20.8 µM (inactive) | 5.79 µM (inactive) | 14.8 µM (inactive) | 12.8 µM (inactive) | 21.9 µM (inactive) | 15.2 µM (inactive) | 10.6 µM (inactive) | 13.8 µM (inactive) | 16.4 µM (inactive) | 14 µM (inactive) | 14.6 µM (inactive) | 14.2 µM (inactive) | 15.5 µM (inactive) | 13.7 µM (inactive)
6 | CCOC(=O)Cn1c(=O)c2cc(C)cc3c(Cl)nc4c(OC)c(OC)cc1c4c32 | > 100 µM (inactive) | > 100 µM (inactive) | > 100 µM (inactive) | 41.5 µM (inactive) | > 100 µM (inactive) | 71.8 µM (inactive) | > 100 µM (inactive) | > 100 µM (inactive) | > 100 µM (inactive) | > 100 µM (inactive) | > 100 µM (inactive) | > 100 µM (inactive) | > 100 µM (inactive) |  | > 100 µM (inactive) | > 100 µM (inactive) | > 100 µM (inactive) | > 100 µM (inactive) | > 100 µM (inactive)
7 | O=[N+]([O-])c1ccccc1C1SCc2nc3ccccc3n21 (stereo unspecified) | 78.3 µM (inactive) |  | 75 µM (inactive) | 48 µM (inactive) | > 100 µM (inactive) | 36.9 µM (inactive) | 44 µM (inactive) | 54.1 µM (inactive) | > 100 µM (inactive) | 59.2 µM (inactive) | > 100 µM (inactive) | > 100 µM (inactive) | 18.3 µM (inactive) | 83.9 µM (inactive) | > 100 µM (inactive) | 70.6 µM (inactive) | 46.7 µM (inactive) | 54 µM (inactive) | 31.6 µM (inactive)
